Laboratory results reported in patent publication US5189144A, “Human calpastatin-like polypeptide” (Takara Shuzo Co., Ltd., priority 1989, dated 1993).
“Also recorded” adds a separate entry of the source. No end group written: not given here.

Tested on: calpain
Experiment: assay of calpain inhibition (casein substrate, acid-soluble fraction read at 280 nm)
Assay type: biochemical
Settings: 15 min at 30° C. after adding calcium chloride, absorbance at 280 nm of the supernatant, profiles only in FIGS. 3 and 4
Protocol: Confirmation of expression can be done by the measurement of the inhibition of calpain, as in the measurement done with casein as the substrate, with extraction from a culture fluid of E. coli, and measurement of the decrease in the acid-soluble fraction by the use of spectroscopy.
The assay of calpain inhibition was done as described below (A. Kitahara et al., J. Biochem., 95, 1759-1766, 1984). First, 10 μl of the sample 2.5 μl of calpain at the concentration of 1 mg/ml, 40 μl of 2% casein in imidazole, and 20 μl of crysteine at the concentration of 6 mg/ml were mixed together, giving a total volume of 180 μl. Next, the mixture was treated for 5 min at 30° C., after which 20 μl of 50 mM calcium chloride was added, and the mixture was incubated for 15 min at 30° C. Then 200 μl of 5% trichloroacetic acid was added to stop the reaction, and the mixture was centrifuged at 12,000 rpm for 10 min. The supernatant was obtained, and its absorbance at 280 nm was measured, from which the inhibitory activity toward calpain was calculated.

TYIEELGKREVTIPPKYRELL [polypeptide of 21 amino acids]
inhibitory activity toward calpain: can inhibit calpain; also recorded: had calpastatin-like activity

TYIEELGKREVTIPPKYR [polypeptide of 18 amino acids]
inhibitory activity toward calpain: can inhibit calpain; also recorded: still has activity; also recorded: inhibited calpain

DPMSSTYIEELGKREVTIPPKYRELL [polypeptide of 26 amino acids]
inhibitory activity toward calpain: can inhibit calpain; also recorded: had calpastatin-like activity

YIEELGKREVTIPPKYR [polypeptide with 17 amino acids, reference compound]
inhibitory activity toward calpain: almost undetectable
